The subject of one test is I2 imidazoline receptors. The test is described as follows: inhibition of 3H-idazoxan (5 nM) binding to rat aortic smooth muscle cell membranes. The settings on record: 3H-idazoxan 5 nM. The protocol: Binding to I2 imidazoline receptors is determined by the following assay. Membranes are prepared from cultured cells for ligand binding as described in Regunathan, S., et al, Biochem. Pharmacol. 45, 1667-1675 (1993) and Regunathan, S., et al, J. Neurosci. Res. 34, 681-688 (1993) and the disclosure in these on this is incorporated herein by reference. In particular, harvested rat aortic smooth muscle cells are homogenized in Hepes-sucrose buffer (pH 7.4) with a Teflon-glass homogenizer and centrifuged at 1000 × g for 10 minutes. The pellets are suspended in ice-cold Tris-HCl buffer (pH 7.7) with 5mM ethylene diamine tetracetic acid and homogenized using a Polytron (Brinkman Instruments) for 10 seconds. The homogenate is centrifuged at 40,000 × g for 30 minutes to produce a membrane pellet. The membrane pellet is washed three times by resuspending in buffer and re-centrifuging. The washed pellet is suspended in fresh Tris-HCl buffer (pH 7.4) to provide approximately 100 μg protein per assay tube. Binding assays are performed in Tris-HCl buffer (pH 7.7) using 5 nM of […]. Non-specific binding is defined by 100 μM of unlabelled idazoxan which will inhibit the specific binding of ^3 H-idazoxan. Thus the binding remaining in the presence 100 μM of idazoxan is due to non-specific binding and this will be substracted from total binding to calculate the specific binding. Following incubation at 25° C. for 30 minutes, reaction is terminated by rapid vacuum filtration over Whatman GF/B filters and washed with 10 ml of ice-cold buffer. Filters are suspended in scintillation fluid and radioactivity counted in a liquid scintillation counter. Membrane protein is assayed by Coomassie Blue method (Pierce) using bovine serum albumin as standard.
Determination of inhibition constant (Ki) for each drug is determined as follows: The binding of ^3 H-idazoxan to membranes of vascular smooth muscle cells is determined in the presence of 0.1 nM to 100 μM concentrations of potential drug. The percent inhibition of specific binding of ^3 H-idazoxan by each concentration is calculated and plotted against concentration. The data is analyzed by non-linear curve fitting program, LIGAND and the IC50 value for each potential drug is calculated. The affinity for each drug (Ki) for I2 imidazoline receptors is calculated using the formula Ki =IC50 /1+L/Kd where L is the concentration of ^3 H-idazoxan used for binding and Kd is the dissociation constant for ^3 H-idazoxan for I2 imidazoline receptors. The dissociation constant (Kd) is determined by Scatchard analysis of the saturation binding of ^3 H-idazoxan using the formula [formula] where B and F are the amount of bound and free ligand, respectively, and Bmax is the number of binding sites.
Primary cultures of rat-aortic smooth muscle cells were prepared by a modification (described in Erlinge, Do, et al, Am. J. Physiol. 265, H1089-1097, 1993) of the method of Meyer-Lehnert and Schrier (Meyer-Lehnert, H., et al, Hypertension 13,350-361, 1989), the disclosure of these cited articles being incorporated herein by reference. Briefly, rats were killed by anesthetic overdose and the aorta were removed and incubated with collagenase (2 mg/ml) in Dulbecco's modified Eagle's minimum essential medium (DMEM). The vessel was stripped of adventitia, cut longitudinally and the intima scraped away. After further collagenase treatment, the remaining tissue was passed 20 times through 18 and 16 gauge needles. The resulting cell suspension was centrifuged at 500 × g for 5 minutes and resuspended in DMEM containing penicillin (100 units/ml), streptomycin (100 μg/ml), 2 mM L-glutamine and 10% fetal calf serum. The suspended cells were plated in T-75 flasks, cultured until confluent, and subcultured in 100 mm plates. The confluent cells were harvested and membranes were prepared. Cell viability was determined by trypan blue exclusion.

A short description of test [1]: Example I: patient with intermittent claudication, iliac artery plaques. It is filed as in vivo, human. The settings on record: over 30 days oral; idazoxan 50 and 75 mg/day, UK 14,304 125, naphazoline 125, cirazoline 75, agmatine 900 mg/day. The source says:
A person presents with progressive symptoms of intermittent claudication in both legs.

A short description of test [2]: Example IV: patient with fibromuscular dysplasia of the renal artery, angioplasty. It is filed as in vivo, human.
Test [3] in a line: Example V: patient with Type I diabetes mellitus, overgrowth of retinal vessels. It is filed as in vivo, human. The settings on record: idazoxan 75 mg/day; UK 14,304 60, naphazoline 125, cirazoline 60, agmatine 900 mg/day. From the text:
A person with Type I diabetes mellitus and maintained on insulin presents with progressive symptoms of loss of visual acuity bilaterally with evidence on opthalmascopic examination of overgrowth of retinal vessels and hemorrhages.

Like-named read-outs stand apart in the source and are kept apart here.

Regarding `c1ccc2c(c1)OCC(C1=NCCN1)O2` (stereo not drawn) [Idazoxan, 2-[2-(1,4-benzodioxanyl)]-2-imidazoline], the Ki in the test with I2 imidazoline receptors ("about", read-out: Ki, inhibition of 3H-idazoxan binding) was approximately 10 nM; in the test on I2 imidazoline receptors (Table 2, rat aortic smooth muscle cell membranes, read-out: Ki), 8.5 ± 0.35 nM. Further, the “symptoms of intermittent claudication” value in test [1] is reported as “stabilization of symptoms”. Moreover, in test [2] (idazoxan 75 mg/day for 1 month followed by angioplasty with continued treatment), the blood pressure result is “rapid fall of blood pressure to normal”. Moreover, the “re-elevation of pressure / restenosis of the renal artery” value in test [2] (idazoxan 75 mg/day, UK 14,304 60, naphazoline 125, cirazoline 60, agmatine 900 mg/day) is given as “without evidence months later on re-elevation of pressure or on follow up, of restenosis of the renal artery”. The “progression and visual symptoms” value in test [3] is “arrest of the progression and some regression of the visual symptoms”.

Broadly, the Ki is a measure of affinity in units of concentration, obtained from inhibition or displacement.

Source of the values: US5574059A, “Treating disorders mediated by vascular smooth muscle cell proliferation” (priority 1995, dated 1996).
